Results as given in paper PMC10035947, “Development of novel anilinoquinazoline-based carboxylic acids as non-classical carbonic anhydrase IX and XII inhibitors” (Journal of Enzyme Inhibition and Medicinal Chemistry, 2023).
pKi: −log10 of the molar value.

Experiments:
T-47D = experiment: NCI SRB assay; format: cell-based, human
BT-549 = experiment: NCI SRB assay; format: cell-based, human
UACC-257 = experiment: NCI SRB assay; format: cell-based, human
HOP-92 = experiment: NCI SRB assay; format: cell-based, human
HCC-2998 = experiment: NCI SRB assay; format: cell-based, human
HCT-15 = experiment: NCI SRB assay; format: cell-based, human
CCRF-CEM = experiment: NCI SRB assay; format: cell-based, human
MCF7 = experiment: NCI SRB assay; format: cell-based, human
SK-MEL-5 = experiment: NCI SRB assay; format: cell-based, human
DU-145 = experiment: NCI SRB assay; format: cell-based, human
HS 578 T = experiment: NCI SRB assay; format: cell-based, human
RPMI-8226 = experiment: NCI SRB assay; format: cell-based, human
COLO 205 = experiment: NCI SRB assay; format: cell-based, human
NCI-H322M = experiment: NCI SRB assay; format: cell-based, human
hCA IX = target: T1, hCA IX (Homo sapiens, UniProt Q16790); experiment: stopped flow CO2 hydrase assay; format: biochemical
T1 construct: made in house
Experimental: (§1) Carbonic anhydrase inhibition assay
(§2) The carbonic anhydrase catalyzed CO2 hydration actions for the quinazoline-based […]
(§3) Photophysics stopped-flow, as described previously. The enzymes are recombinant proteins prepared in our lab. Phenol red (at a concentration of 0.2 mM) has been used as indicator, working at the absorbance maximum of 557 nm, with 20 mM Hepes (pH 7.5) as buffer, and 20 mM Na2SO4 (for maintaining constant the ionic strength), following the initial rates of the CA- […]
(§4) 1.7 to 17 mM for the determination of the kinetic parameters and inhibition constants. For each […]
(§5) initial velocity. The uncatalyzed rates were determined in the same manner and subtracted from the total observed rates. Stock solutions of inhibitor (0.1 mM) were prepared in distilled-deionized water and dilutions up to 0.01 nM were done thereafter with the assay buffer. Inhibitor and enzyme solutions were preincubated together for 15 min at room temperature prior to assay, in order to allow for the formation of the E-I complex. The inhibition constants were obtained by non-linear least-squares methods using PRISM 3 and the Cheng-Prusoff equation, and represent the mean from at least three different determinations.

hCA I = target: T2, hCA I (Homo sapiens, UniProt P00915); experiment: stopped flow CO2 hydrase assay; format: biochemical; conditions: mean from 3 assays
T2 construct: made in house
T2 sequence (P00915 whole entry): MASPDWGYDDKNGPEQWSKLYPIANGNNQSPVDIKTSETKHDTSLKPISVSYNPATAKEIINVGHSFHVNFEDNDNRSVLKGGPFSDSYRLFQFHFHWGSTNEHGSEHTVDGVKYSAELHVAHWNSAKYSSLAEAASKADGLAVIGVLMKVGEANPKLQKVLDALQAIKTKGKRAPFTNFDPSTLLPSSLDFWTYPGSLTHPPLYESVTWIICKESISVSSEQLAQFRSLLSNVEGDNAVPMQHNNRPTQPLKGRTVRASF
Experimental: as §1, §2, §3, §4, §5

hCA XII = target: T3, hCA XII (Homo sapiens, UniProt O43570); experiment: stopped flow CO2 hydrase assay; format: biochemical
T3 construct: made in house
T3 sequence (O43570 25-354): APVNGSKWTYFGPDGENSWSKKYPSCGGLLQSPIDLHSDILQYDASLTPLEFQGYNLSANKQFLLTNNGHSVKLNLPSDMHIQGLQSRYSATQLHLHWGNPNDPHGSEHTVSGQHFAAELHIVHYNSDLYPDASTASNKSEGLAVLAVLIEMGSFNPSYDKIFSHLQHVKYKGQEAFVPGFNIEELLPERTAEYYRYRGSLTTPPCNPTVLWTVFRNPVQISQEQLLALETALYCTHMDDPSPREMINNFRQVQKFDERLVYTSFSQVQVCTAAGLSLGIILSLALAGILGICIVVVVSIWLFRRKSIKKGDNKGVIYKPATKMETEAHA
Experimental: as §1, §2, §3, §4, §5

NCI/ADR-RES = experiment: NCI SRB assay; format: cell-based, human
HT29 = experiment: NCI SRB assay; format: cell-based, human
OVCAR-8 = experiment: NCI SRB assay; format: cell-based, human
A549/ATCC = experiment: NCI SRB assay; format: cell-based, human; conditions: A549/ATCC
MALME-3M = experiment: NCI SRB assay; format: cell-based, human
HCT-116 = experiment: NCI SRB assay; format: cell-based, human
SK-OV-3 = experiment: NCI SRB assay; format: cell-based, human
PC-3 = experiment: NCI SRB assay; format: cell-based, human
OVCAR-4 = experiment: NCI SRB assay; format: cell-based, human
MDA-MB-468 = experiment: NCI SRB assay; format: cell-based, human

Compound: Cc1ccc(-c2nc(Nc3cccc(C(=O)O)c3)c3ccccc3n2)cc1 [7b, 3-((2-(p-Tolyl)quinazolin-4-yl)amino)benzoic acid]
- GI% (T-47D; 10 μM): – (Only GI% higher than 20% are shown)
- Growth Percent (T-47D; 1.00E-5 Molar): 83.81%
- GI% (BT-549; BT-549, 10 μM): – (Only GI% higher than 20% are shown)
- Growth Percent (BT-549; BT-549, 1.00E-5 Molar): 101.46%
- GI% (UACC-257; UACC-257, 10 μM): – (Only GI% higher than 20% are shown)
- Growth Percent (UACC-257; UACC-257, 1.00E-5 Molar): 111.51%
- GI% (HOP-92; HOP-92, 10 μM): 29%
- Growth Percent (HOP-92; HOP-92, 1.00E-5 Molar): 71.46%
- GI% (HCC-2998; HCC-2998, 10 μM): – (Only GI% higher than 20% are shown)
- Growth Percent (HCC-2998; HCC-2998, 1.00E-5 Molar): 94.40%
- GI% (HCT-15; HCT-15, 10 μM): 55%
- Growth Percent (HCT-15; HCT-15, 1.00E-5 Molar): 45.38%
- GI% (CCRF-CEM; 10 μM): 21%
- Growth Percent (CCRF-CEM; 1.00E-5 Molar): 78.66%
- GI% (MCF7; MCF7, 10 μM): – (Only GI% higher than 20% are shown)
- Growth Percent (MCF7; MCF7, 1.00E-5 Molar): 85.28%
- GI% (SK-MEL-5; SK-MEL-5, 10 μM): – (Only GI% higher than 20% are shown)
- Growth Percent (SK-MEL-5; SK-MEL-5, 1.00E-5 Molar): 85.67%
- GI% (DU-145; DU-145, 10 μM): – (Only GI% higher than 20% are shown)
- Growth Percent (DU-145; DU-145, 1.00E-5 Molar): 96.55%
- GI% (HS 578 T; HS 578 T, 10 μM): 34%
- Growth Percent (HS 578 T; HS 578T, 1.00E-5 Molar): 65.83%
- GI% (RPMI-8226; RPMI-8226, 10 μM): 29%
- Growth Percent (RPMI-8226; RPMI-8226, 1.00E-5 Molar): 70.78%
- GI% (COLO 205; COLO 205, 10 μM): – (Only GI% higher than 20% are shown)
- Growth Percent (COLO 205; COLO 205, 1.00E-5 Molar): 124.60%
- GI% (NCI-H322M; 10 μM): – (Only GI% higher than 20% are shown)
- Growth Percent (NCI-H322M; 1.00E-5 Molar): 99.74%
- Selectivity ratio II/IX (hCA IX; KI hCA II / KI hCA IX): 1.72
- pKi (hCA IX; mean from 3 assays): 4.62
- pKi (hCA I): < 4.00
- Selectivity ratio I/XII (hCA XII; KI hCA I / KI hCA XII): 109.9
- Selectivity ratio II/XII (hCA XII; KI hCA II / KI hCA XII): 45.82
- pKi (hCA XII; mean from 3 assays): 6.04
- GI% (NCI/ADR-RES; 10 μM): – (Only GI% higher than 20% are shown)
- Growth Percent (NCI/ADR-RES; 1.00E-5 Molar): 89.49%
- GI% (HT29; HT29, 10 μM): – (Only GI% higher than 20% are shown)
- Growth Percent (HT29; HT29, 1.00E-5 Molar): 105.90%
- GI% (OVCAR-8; OVCAR-8, 10 μM): – (Only GI% higher than 20% are shown)
- Growth Percent (OVCAR-8; OVCAR-8, 1.00E-5 Molar): 91.56%
- GI% (A549/ATCC; 10 μM): – (Only GI% higher than 20% are shown)
- Growth Percent (A549/ATCC; 1.00E-5 Molar): 90.82%
- GI% (MALME-3M; 10 μM): – (Only GI% higher than 20% are shown)
- Growth Percent (MALME-3M; 1.00E-5 Molar): 96.44%
- GI% (HCT-116; HCT-116, 10 μM): 26%
- Growth Percent (HCT-116; HCT-116, 1.00E-5 Molar): 74.42%
- GI% (SK-OV-3; SK-OV-3, 10 μM): – (Only GI% higher than 20% are shown)
- Growth Percent (SK-OV-3; SK-OV-3, 1.00E-5 Molar): 89.56%
- GI% (PC-3; PC-3, 10 μM): – (Only GI% higher than 20% are shown)
- Growth Percent (PC-3; PC-3, 1.00E-5 Molar): 80.52%
- GI% (OVCAR-4; OVCAR-4, 10 μM): 23%
- Growth Percent (OVCAR-4; OVCAR-4, 1.00E-5 Molar): 77.91%
- GI% (MDA-MB-468; MDA-MB-468, 10 μM): – (Only GI% higher than 20% are shown)
- Growth Percent (MDA-MB-468; MDA-MB-468, 1.00E-5 Molar): 116.40%
